Some test systems named below: HT-29; K562; U-251; HOP-62; HL-60; MCF7; HOP-92; CAKI-1; HCT-116; SNB-75; TK-10; SK-MEL-2; CCRF-CEM; SNB-19; SR; SK-OV-3; NCI/ADR-RES; SF-295; NCI-H226.
What all share (assay): growth of human tumour cells (NCI), 48 h

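Step 1: Grow cells in 96-well plates. Step 2: Expose to compound for 48 hours at 5 concentrations. Step 3: Interpolate endpoints linearly; if unreached, use highest concentration. At the GI50, growth is halved.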 Calls of active or inactive are those of the source. Cut-off read from the data, not from the text of the source: active = GI50 up to about 1.1 µM and inactive = higher. Some results are limits rather than exact numbers.

On to `c1ccc(NCCSc2nc3ccccc3s2)cc1`, for which the GI50 was 30.5 µM (inactive) with HT-29; 34 µM (inactive) in the test with K562; 52.8 µM (inactive) in the test on U-251; > 100 µM (inactive) in the test with HOP-62; 32.1 µM (inactive) in the test with HL-60; 25.8 µM (inactive) in the test with MCF7. The GI50 in the test with HOP-92 was 41.1 µM (inactive); in the test on CAKI-1, 93.1 µM (inactive); in the test on HCT-116, 37.3 µM (inactive); in the test on SNB-75, > 100 µM (inactive); in the test with TK-10 it was 23.6 µM (inactive); with SK-MEL-2, 30.8 µM (inactive). In addition, the GI50 is 14.8 µM (inactive) with CCRF-CEM; > 100 µM (inactive) with SNB-19; 39.7 µM (inactive) in the test with SR; > 100 µM (inactive) in the test with SK-OV-3; 35.9 µM (inactive) with NCI/ADR-RES; > 100 µM (inactive) in the test on SF-295.
Consider `CCOC(=O)C(NC(=O)c1ccco1)(Nc1nc2ccc(OCC)cc2s1)C(F)(F)F` (centres undefined), for which the GI50 is 32.3 µM (inactive) in the test with HT-29; 27.6 µM (inactive) in the test on K562; 35.2 µM (inactive) in the test with U-251; > 100 µM (inactive) in the test with HL-60; 25.4 µM (inactive) with MCF7; 15 µM (inactive) with HOP-92. The GI50 was 17.3 µM (inactive) in the test with CAKI-1; 27.3 µM (inactive) in the test on HCT-116; 19.8 µM (inactive) in the test on SNB-75; 50.1 µM (inactive) in the test on TK-10; 32.7 µM (inactive) with SK-MEL-2; 23.8 µM (inactive) in the test on CCRF-CEM. Besides, the GI50 was 51.4 µM (inactive) in the test on SNB-19; 19.3 µM (inactive) with SR; 52.8 µM (inactive) in the test with SK-OV-3; 25.8 µM (inactive) with NCI/ADR-RES; 43.1 µM (inactive) with SF-295; 35.1 µM (inactive) with NCI-H226.
Turning to `C/C(=N\NC(=S)NCCNC(=S)N/N=C(\C)c1ccccn1)c1ccccn1`, the GI50 is 2.07 µM (inactive) with HT-29; 3.17 µM (inactive) in the test on K562; 2.43 µM (inactive) in the test with U-251; 1.83 µM (inactive) in the test on HOP-62; 0.789 µM (active) with HL-60; 4.39 µM (inactive) in the test with MCF7. Further, the GI50 in the test on HOP-92 is 3.91 µM (inactive); in the test on CAKI-1, 3.42 µM (inactive); in the test on HCT-116, 2.75 µM (inactive); with SNB-75, 1.73 µM (inactive); in the test with TK-10 it was 1.04 µM (active); with SK-MEL-2, 1.82 µM (inactive). Further, the GI50 with CCRF-CEM was 1.28 µM (inactive); in the test with SNB-19, 9.46 µM (inactive); in the test with SR, 0.514 µM (active); in the test with SK-OV-3 it was 4.7 µM (inactive); in the test with NCI/ADR-RES, 1.92 µM (inactive); with SF-295, 3.45 µM (inactive).
In the case of `O=C(CCNC(=O)OCc1ccccc1)OCCCNC(=O)OCc1ccccc1`, the GI50 in the test with HT-29, in the test on K562, with U-251, in the test on HOP-62, in the test on HL-60 and with MCF7 was > 100 µM (inactive) each time. Also, the GI50 was > 100 µM (inactive) in the test on HOP-92; > 100 µM (inactive) with HCT-116; 50.8 µM (inactive) in the test on SNB-75; > 100 µM (inactive) in the test on TK-10; > 100 µM (inactive) in the test with CCRF-CEM; > 100 µM (inactive) with SNB-19. The GI50 in the test with SR, with SK-OV-3, with NCI/ADR-RES, in the test on SF-295 and in the test on NCI-H226 was > 100 µM (inactive) in each case.
`COC1/C=C/C(C)C(C(C)C(OC)C(C)CCC(=O)C(C)C(CC(=O)O)OC)OC(=O)/C=C/C=C(\C)CC(OC)CC2=CC(=O)O[C@H](C2)C(C)C(OC)CC(OC)/C=C/C(C)C(OC)C1` (some centres undefined): the GI50 with HT-29 was 0.916 µM (active); with K562, 1.79 µM (inactive); in the test on U-251, 0.195 µM (active); in the test with HOP-62 it was 0.45 µM (active); in the test with HL-60, 0.118 µM (active); in the test on MCF7, 0.439 µM (active). The GI50 is 0.124 µM (active) with HOP-92; 0.0621 µM (active) in the test on CAKI-1; 0.00746 µM (active) with SNB-75; 0.433 µM (active) in the test on TK-10; 0.265 µM (active) in the test with SK-MEL-2; 0.191 µM (active) in the test on CCRF-CEM. For the same compound, the GI50 is 0.441 µM (active) with SNB-19; 0.385 µM (active) in the test on SR; 0.695 µM (active) in the test on SK-OV-3; 2.66 µM (inactive) in the test with NCI/ADR-RES; 0.258 µM (active) in the test with SF-295; 0.543 µM (active) with NCI-H226.
As to `CSC(=O)/C=C1\SS/C(=C\C(=O)SC)S1`, the GI50 is 2.47 µM (inactive) in the test with HT-29; 2.79 µM (inactive) with K562; 2.14 µM (inactive) in the test on U-251; 7.35 µM (inactive) in the test on HOP-62; 1.12 µM (active) in the test with HL-60; 2.74 µM (inactive) in the test with MCF7. In addition, the GI50 is 2.83 µM (inactive) in the test with HOP-92; 1.39 µM (inactive) with CAKI-1; 1.69 µM (inactive) with HCT-116; 2.58 µM (inactive) in the test with SNB-75; 4.93 µM (inactive) with TK-10; 2.15 µM (inactive) in the test on SK-MEL-2. For the same compound, the GI50 was 1.88 µM (inactive) in the test on CCRF-CEM; 6.92 µM (inactive) with SNB-19; 1.96 µM (inactive) with SR; 2.34 µM (inactive) in the test with NCI/ADR-RES; 5.36 µM (inactive) with SF-295; 1.77 µM (inactive) in the test with NCI-H226.
Consider `CCOC1OC(=O)c2cc3ccc4c(c3c(-c3ccc5c(c3)OCO5)c21)OCO4` (centres undefined), for which the GI50 was 4.76 µM (inactive) with HT-29; 7.6 µM (inactive) with K562; 5.68 µM (inactive) in the test with U-251; 4.63 µM (inactive) with HOP-62; 9.91 µM (inactive) with HL-60; 9.57 µM (inactive) in the test on MCF7. Further, the GI50 with HOP-92 was 96.8 µM (inactive); with CAKI-1 it was 4.48 µM (inactive); with HCT-116, 2.43 µM (inactive); in the test on SNB-75, 1.08 µM (active); in the test with TK-10 it was 4.75 µM (inactive); in the test on SK-MEL-2, 12.8 µM (inactive). Besides, the GI50 is 9.33 µM (inactive) in the test on CCRF-CEM; 8.95 µM (inactive) with SNB-19; 2.04 µM (inactive) in the test on SR; 1.42 µM (inactive) with SK-OV-3; 5.13 µM (inactive) in the test with NCI/ADR-RES; 2.27 µM (inactive) in the test with SF-295. In addition, in the test with NCI-H226, the GI50 is 4.71 µM (inactive).
Take `CSC1=NC(=O)CCN1C1OCC(OC(C)=O)C(OC(C)=O)C1OC(C)=O` (centres undefined): the GI50 with HT-29 was 17.9 µM (inactive); in the test with K562 it was 3.65 µM (inactive); with U-251, 15.8 µM (inactive); with HOP-62, 18.7 µM (inactive); in the test with HL-60 it was 2.99 µM (inactive); in the test on MCF7 it was 63.8 µM (inactive). In addition, the GI50 is 14.8 µM (inactive) in the test on HOP-92; 24.7 µM (inactive) in the test with CAKI-1; 5.45 µM (inactive) in the test with HCT-116; 14.7 µM (inactive) with SNB-75; 17.1 µM (inactive) with TK-10; 13.6 µM (inactive) in the test on SK-MEL-2. For the same compound, the GI50 in the test with CCRF-CEM is 5.9 µM (inactive); in the test on SNB-19, 16.3 µM (inactive); with SR it was 4.51 µM (inactive); in the test with SK-OV-3, 15.2 µM (inactive); in the test on NCI/ADR-RES, 15.8 µM (inactive); in the test with SF-295, 20.1 µM (inactive). In addition, in the test on NCI-H226, the GI50 was 18.7 µM (inactive).
On to `CC(=O)Oc1ccc2c3c1[C@H]1O[C@H]1c1cccc(c1-3)[C@@H]1O[C@H]21`, for which the GI50 in the test with HT-29 was 7.18 µM (inactive); in the test on K562, 5.02 µM (inactive); in the test on U-251, 4.99 µM (inactive); with HOP-62, 5.19 µM (inactive); in the test with HL-60, 1.82 µM (inactive); in the test with MCF7 it was 18.4 µM (inactive). Besides, the GI50 in the test on HOP-92 was 9.68 µM (inactive); in the test on CAKI-1 it was 3.22 µM (inactive); in the test on HCT-116, 11.2 µM (inactive); in the test on SNB-75 it was 4.13 µM (inactive); in the test with TK-10, 13.9 µM (inactive); in the test with SK-MEL-2, 9.55 µM (inactive). Besides, the GI50 in the test with SNB-19 was 15.8 µM (inactive); in the test with SR, 10.9 µM (inactive); with SK-OV-3, 14.6 µM (inactive); in the test on NCI/ADR-RES it was 10 µM (inactive); with SF-295, 10 µM (inactive); in the test with NCI-H226 it was 21.4 µM (inactive).
As for `N#Cc1c(N2CCOCC2)ncn(-c2ccc(Cl)cc2)c1=O`, the GI50 was > 100 µM (inactive) in the test with K562; > 100 µM (inactive) in the test on U-251; > 100 µM (inactive) with HOP-62; 18.1 µM (inactive) in the test with HL-60; > 100 µM (inactive) in the test with MCF7; > 100 µM (inactive) with HOP-92. The GI50 in the test with CAKI-1, in the test with HCT-116, with SNB-75, in the test on SK-MEL-2, in the test with CCRF-CEM and in the test on SNB-19 was > 100 µM (inactive) each time. In addition, the GI50 with SR, in the test with SK-OV-3, in the test on NCI/ADR-RES, in the test with SF-295 and with NCI-H226 was > 100 µM (inactive) each time.
For the compound `Cc1ccc(S(=O)(=O)NC(CCC(=O)NNc2ccccc2)C(=O)NNc2ccccc2)cc1` (centres undefined), the GI50 with HT-29 is 13.2 µM (inactive); in the test on K562, 85.9 µM (inactive); in the test with U-251, 3.08 µM (inactive); with HOP-62, > 100 µM (inactive); in the test on HL-60, > 100 µM (inactive); with MCF7 it was 23.1 µM (inactive). For the same compound, the GI50 with HOP-92 was > 100 µM (inactive); in the test with CAKI-1, > 100 µM (inactive); in the test on HCT-116, 30.7 µM (inactive); in the test on SNB-75 it was > 100 µM (inactive); in the test with TK-10, 1.95 µM (inactive); in the test with SK-MEL-2, 13.5 µM (inactive). Besides, the GI50 in the test on CCRF-CEM was 51.4 µM (inactive); in the test with SNB-19 it was > 100 µM (inactive); with SR, 18.9 µM (inactive); with SK-OV-3 it was > 100 µM (inactive); with NCI/ADR-RES, > 100 µM (inactive); in the test with SF-295, 10.4 µM (inactive). For the same compound, in the test with NCI-H226, the GI50 was > 100 µM (inactive).

The values are drawn from ChEMBL document CHEMBL1201862, “PubChem BioAssay data set” (2004).
